Results on 11 compounds are retold here after patent US20260000692A1, “Substituted N-(Pyridin-2-yl)Acetamide Derivatives as CDK12/13 Inhibitors” (Aurigene Oncology Limited, priority 2022, published 2026).

What is called IC50 is the point on the concentration scale where inhibition reaches its midpoint. In general, inhibition refers to the relative decrease from the control value, in per cent.

The target in this assay is CDK12 (Homo sapiens, UniProt Q9NYV4). In words: Biochemical assay for CDK12 (LANCE TR-FRET, IC50 determination). The note with it: for IC50: CDK12, IC50 class, read-out: IC50 μM (in range); for inhibition at 10 µM / CDK12 % Inhibition @ 10 μM: compound at 10 μM; for inhibition at 10 µM: read-out: CDK12 % Inhibition @ 10 μM. Here is the method: Biochemical Assay for CDK12 (IC50 Determination):
The inhibitory activity of the test compounds was assessed by the LANCE TR-FRET assay, which detects the ATP-dependent phosphorylation of an ULight-4E-BP1 (Thr37/Thr46) substrate peptide (100 nM) by CDK12 (30 nM). Briefly, the enzyme reaction was run in reaction buffer (25 mM HEPES (pH 7.5), 10 mM MgCl2, […], 0.01% Triton x, 1 mM DTT). The assay was performed in 384-well plate format. The end concentration of the ATP substrate was […], and that of the ULight-4E-BP1 (Thr37/Thr46) substrate peptide was 100 nM, and of CDK12 was 30 nM. Pre-incubation of the compound and enzyme was performed for 60 min at room temperature. After 60 min incubation at room temperature, the reaction was terminated by the addition of 40 mM EDTA and 0.5 nM Eu-labeled anti-phospho-eIF4E-binding protein (Thr37/46) antibody in LANCE detection buffer. Time-resolved fluorescence (excitation, 320 nm; emission donor, 615 nm; emission acceptor, 665 nm) was monitored by using 2030 multilabel reader Victor5 (PerkinElmer). The Fluorescence emission of the samples were measured and the ratio was plotted against the compound concentration to generate the dose response curve. The IC50 values were derived by fitting a sigmoidal dose-response curve to a plot of assay readout over inhibitor concentration. All fits were computed with the program Prism 5.03 (Graph Pad Software, San Diego, CA). The % inhibition values at […] were calculated with respect to enzyme activity.
Background: Time-resolved FRET reads energy transfer from a long-lived donor to a nearby acceptor.

CDK12, sequence (Q9NYV4 whole entry): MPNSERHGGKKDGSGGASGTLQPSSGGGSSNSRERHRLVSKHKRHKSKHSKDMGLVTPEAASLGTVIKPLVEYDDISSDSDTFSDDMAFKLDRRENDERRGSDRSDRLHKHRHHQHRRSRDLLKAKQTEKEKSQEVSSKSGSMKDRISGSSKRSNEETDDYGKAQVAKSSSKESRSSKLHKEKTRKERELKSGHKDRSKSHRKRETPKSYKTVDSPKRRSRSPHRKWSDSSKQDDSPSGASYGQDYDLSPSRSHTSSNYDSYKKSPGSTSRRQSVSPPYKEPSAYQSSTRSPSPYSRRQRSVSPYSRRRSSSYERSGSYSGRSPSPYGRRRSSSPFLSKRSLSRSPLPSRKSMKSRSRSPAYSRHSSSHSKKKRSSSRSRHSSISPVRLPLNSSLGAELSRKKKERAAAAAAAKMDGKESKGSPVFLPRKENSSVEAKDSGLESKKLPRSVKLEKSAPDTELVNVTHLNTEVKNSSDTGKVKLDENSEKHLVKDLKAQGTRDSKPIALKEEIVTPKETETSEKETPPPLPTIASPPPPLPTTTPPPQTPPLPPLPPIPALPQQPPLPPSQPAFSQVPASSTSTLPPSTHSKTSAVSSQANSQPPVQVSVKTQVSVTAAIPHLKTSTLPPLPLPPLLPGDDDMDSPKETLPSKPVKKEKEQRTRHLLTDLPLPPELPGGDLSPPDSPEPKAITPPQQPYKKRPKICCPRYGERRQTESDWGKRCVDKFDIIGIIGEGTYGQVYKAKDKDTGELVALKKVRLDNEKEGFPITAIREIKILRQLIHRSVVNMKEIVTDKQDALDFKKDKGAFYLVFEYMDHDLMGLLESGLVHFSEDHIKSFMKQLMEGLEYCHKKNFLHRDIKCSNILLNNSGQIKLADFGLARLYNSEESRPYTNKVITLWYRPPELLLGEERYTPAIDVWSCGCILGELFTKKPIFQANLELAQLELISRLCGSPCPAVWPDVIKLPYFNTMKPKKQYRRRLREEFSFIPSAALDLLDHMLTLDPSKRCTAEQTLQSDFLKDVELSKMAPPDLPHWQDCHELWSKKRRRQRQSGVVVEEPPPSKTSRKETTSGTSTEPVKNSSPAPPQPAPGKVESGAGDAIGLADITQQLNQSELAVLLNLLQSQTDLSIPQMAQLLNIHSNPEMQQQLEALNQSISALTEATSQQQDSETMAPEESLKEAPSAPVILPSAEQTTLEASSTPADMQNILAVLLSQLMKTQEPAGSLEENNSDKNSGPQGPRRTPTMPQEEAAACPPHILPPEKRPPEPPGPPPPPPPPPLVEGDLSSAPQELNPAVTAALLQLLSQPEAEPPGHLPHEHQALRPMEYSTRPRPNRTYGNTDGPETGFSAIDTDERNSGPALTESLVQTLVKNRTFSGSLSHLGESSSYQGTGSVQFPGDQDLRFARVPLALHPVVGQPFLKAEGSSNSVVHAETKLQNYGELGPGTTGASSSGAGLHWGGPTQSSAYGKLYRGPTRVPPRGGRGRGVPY
CDK12, sequence (O75909 whole entry partner): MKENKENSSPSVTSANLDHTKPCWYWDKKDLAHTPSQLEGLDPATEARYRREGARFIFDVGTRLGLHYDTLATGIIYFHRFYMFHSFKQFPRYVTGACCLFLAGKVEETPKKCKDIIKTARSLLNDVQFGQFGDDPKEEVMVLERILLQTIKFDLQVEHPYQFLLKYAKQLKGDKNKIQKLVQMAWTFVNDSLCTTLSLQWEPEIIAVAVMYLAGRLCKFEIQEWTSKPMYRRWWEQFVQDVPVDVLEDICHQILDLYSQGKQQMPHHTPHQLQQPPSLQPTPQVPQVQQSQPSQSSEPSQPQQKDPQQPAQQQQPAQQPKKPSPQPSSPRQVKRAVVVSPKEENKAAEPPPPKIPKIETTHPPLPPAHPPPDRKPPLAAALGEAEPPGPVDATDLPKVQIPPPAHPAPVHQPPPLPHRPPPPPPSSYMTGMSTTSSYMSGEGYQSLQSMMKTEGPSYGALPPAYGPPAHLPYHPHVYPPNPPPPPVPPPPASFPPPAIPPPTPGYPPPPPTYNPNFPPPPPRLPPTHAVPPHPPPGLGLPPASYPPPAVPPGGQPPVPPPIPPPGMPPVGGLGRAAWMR

Turning to `CNC(=O)C(C)Oc1cc(NC(=O)Cc2ccc(-c3cccc(C#N)n3)nc2)ncc1Cl` (racemic) [Compound 155, 2-((5-chloro-2-(2-(6′-cyano-[2,2′-bipyridin]-5-yl)acetamido)pyridin-4-yl)oxy)-N-methylpropanamide], the IC50 lay in the range of 0.01 to 0.1 µM and the inhibition at 10 µM came to 97%.

`CNC(=O)C(C)Oc1cc(NC(=O)Cc2ccc(C3=CCN(C#N)CC3)nc2)ncc1Cl` (single isomer, unassigned) [Compound 2, 2-((5-chloro-2-(2-(1′-cyano-1′,2′,3′,6′-tetrahydro-[2,4′-bipyridin]-5-yl)acetamido)pyridin-4-yl)oxy)-N-methylpropanamide]: the IC50 is below 0.01 µM and the inhibition at 10 µM stood at 90%.

Regarding `CNC(=O)C(C)Oc1cc(NC(=O)Cc2ccc(C3=CCN(C#N)CC3)nc2)ncc1Cl` (single isomer, unassigned) [Compound 3, 2-((5-chloro-2-(2-(1′-cyano-1′,2′,3′,6′-tetrahydro-[2,4′-bipyridin]-5-yl)acetamido)pyridin-4-yl)oxy)-N-methylpropanamide], the IC50 was below 0.01 µM and the inhibition at 10 µM amounted to 84%.

Take `N#CN1CCC=C(c2ccc(CC(=O)Nc3cc(OC4CCCOC4)c(Cl)cn3)cn2)C1` (single isomer, unassigned) [Compound 44, N-(5-chloro-4-((tetrahydro-2H-pyran-3-yl)oxy)pyridin-2-yl)-2-(1′-cyano-1′,2′,5′,6′-tetrahydro-[2,3′-bipyridin]-5-yl)acetamide]: the IC50 is below 0.01 µM and the inhibition at 10 µM is 89%.

Regarding `N#CN1CCC=C(c2ccc(CC(=O)Nc3cc(OC4CCCOC4)c(Cl)cn3)cn2)C1` (single isomer, unassigned) [Compound 45, N-(5-chloro-4-((tetrahydro-2H-pyran-3-yl)oxy)pyridin-2-yl)-2-(1′-cyano-1′,2′,5′,6′-tetrahydro-[2,3′-bipyridin]-5-yl)acetamide], the IC50 is below 0.01 µM and the “CDK12 % Inhibition @ 10 μM” value amounted to 92%.

Turning to `COc1cc(NC(=O)C(C)c2ccc(C3=CCCN(C#N)C3)nc2)ncc1Cl` (single isomer, unassigned) [Compound 49], the IC50 was below 0.01 µM and the inhibition at 10 µM was 89%.

As for `COc1cc(NC(=O)C(C)c2ccc(C3=CCN(C#N)CC3)nc2)ncc1Cl` (single isomer, unassigned) [Compound 52], the half-inhibitory concentration (IC50) is below 0.01 µM and the inhibition at 10 µM came to 102%.

With `CNC(=O)C(C)Oc1cc(NC(=O)Cc2ccc(C3=CCCN(C#N)C3)nc2)ncc1Cl` (single isomer, unassigned) [Compound 57, 2-((5-chloro-2-(2-(1′-cyano-1′,2′,5′,6′-tetrahydro-[2,3′-bipyridin]-5-yl)acetamido)pyridin-4-yl)oxy)-N-methylpropanamide], the IC50 is below 0.01 µM and the inhibition at 10 µM is 78%.

Take `CNC(=O)C(C)Oc1cc(NC(=O)Cc2ccc(C3=CCCN(C#N)C3)nc2)ncc1Cl` (single isomer, unassigned) [Compound 58, 2-((5-chloro-2-(2-(1′-cyano-1′,2′,5′,6′-tetrahydro-[2,3′-bipyridin]-5-yl)acetamido)pyridin-4-yl)oxy)-N-methylpropanamide]: the IC50 is below 0.01 µM and the “CDK12 % Inhibition @ 10 μM” value turned out to be 98%.

On to `CC1CC(Oc2cc(NC(=O)Cc3ccc(C4=CCCN(C#N)C4)nc3)ncc2Cl)CCN1C` (single isomer, unassigned) [Compound 64, N-(5-chloro-4-((1,2-dimethylpiperidin-4-yl)oxy)pyridin-2-yl)-2-(1′-cyano-1′,2′,5′,6′-tetrahydro-[2,3′-bipyridin]-5-yl)acetamide], for which the IC50 was below 0.01 µM and the inhibition at 10 µM was found to be 92%.

On to `COc1cc(NC(=O)Cc2ccc(C3=CCN(C#N)C(C)C3)nc2)ncc1Cl` (single isomer, unassigned) [Compound 66, N-(5-chloro-4-methoxypyridin-2-yl)-2-(1′-cyano-2′-methyl-1′,2′,3′,6′-tetrahydro-[2,4′-bipyridin]-5-yl)acetamide], for which the IC50 lay in the range of 0.01 to 0.1 µM and the inhibition at 10 µM worked out at 88%.
